Reference: ChEMBL document CHEMBL5550135, “Targeting the cysteine biosynthesis pathway in microorganisms: Mechanism, structure, and drug discovery” (Eur J Med Chem, 2024)
Values after ≈ are worked out from the molar mass of the structure shown.

Key:
[1] = Binding affinity to Salmonella Typhimurium ATCC 14028 O-acetylserine sulfhydrylase A assessed as dissociation constant; parameters: species or system Salmonella enterica subsp. enterica serovar Typhimurium
[2] = Binding affinity to Salmonella Typhimurium ATCC 14028 O-acetylserine sulfhydrylase B assessed as dissociation constant; parameters: species or system Salmonella enterica subsp. enterica serovar Typhimurium
[3] = system: Mycobacterium tuberculosis; experiment: Antimycobacterial activity against Mycobacterium tuberculosis H37Rv assessed as reduction in bacterial growth incubated for 7 days by resazurin based assay; type: functional; conditions: 168 h, time 7 day
[4] = Inhibition of Salmonella enterica Serine acetyltransferase by spectrophotometric analysis
[5] = molecular target: O-acetylserine sulfhydrylase (Mycobacterium tuberculosis, UniProt P9WP55); experiment: Inhibition of Mycobacterium tuberculosis ATCC 25618 Cysteine synthase A
[6] = Inhibition of Entamoeba histolytica O-acetylserine sulfhydrylase
[7] = Inhibition of Klebsiella pneumoniae Serine acetyltransferase
[8] = system: Escherichia coli; experiment: Antibacterial activity against Escherichia coli assessed as reduction in bacterial growth by broth microdilution method; type: functional
[9] = system: Staphylococcus aureus; experiment: Antibacterial activity against methicillin-resistant Staphylococcus aureus ATCC 33591 assessed as reduction in bacterial growth incubated for 18 hrs by broth microdilution method; type: functional
[10] = Inhibition of Methicillin-resistant Staphylococcus aureus ATCC 33591 Serine acetyltransferase

Cc1ccc(C[C@@]2(C(=O)O)C[C@H]2c2ccccc2)cc1
Kd [1]: 20 nM
Kd [2]: 490 nM

O=C1N=C2C(C(=O)N=C3SC([N+](=O)[O-])=CN32)C(c2ccccc2C(F)(F)F)N1 (stereo unspecified)
MIC [3]: 7.6 µM (≈ 3.13 µg/mL)

Cc1ccc(Nc2nc(-c3cc(C(=O)O)no3)cs2)cc1
IC50 [4]: 110000 nM

C[C@@H]1O[C@@H](O[C@@H]2C[C@H](c3ccc4c(c3O)C(=O)C3=C(C4=O)[C@@]4(O[C@H]5CC[C@H](O)[C@H](C)O5)C(=O)C[C@](C)(O)C[C@@]4(O)C=C3)O[C@H](C)[C@H]2O)CC[C@@H]1O[C@H]1C[C@@H](O)[C@H](O)[C@@H](C)O1
IC50 [5]: 630 nM
IC50 [6]: 310 nM

O=c1c(O)c(-c2ccc(O)c(O)c2)oc2cc(O)cc(O)c12 [QUERCETIN]
IC50 [7]: 3700 nM

Cc1ccc(S(=O)(=O)n2nc(-c3ccccc3)c3c(N)ncnc32)cc1
MIC [8]: 0.57 µg/mL (≈ 1.56 µM)

O=C(CSc1c[nH]nn1)Nc1ccccc1F
MIC [8]: 1.6 µg/mL (≈ 6.34 µM)

Cc1ccc(C[C@@]2(C(=O)O)C[C@H]2c2cccc(-c3cc(O)cc(F)c3)c2)cc1
Kd [1]: 30 nM
Kd [2]: 610 nM

CC1=C2[C@@H](OC1=O)C(=O)[C@H]1[C@]3(C)CCCC(C)(C)[C@H]3CC[C@@]1(O)[C@H]2O
MIC [9]: 12.5 µg/mL (≈ 35.9 µM)
IC50 [10]: 71800 nM

CC1(C)CCC[C@]2(C)[C@@H]1CC[C@]1(O)[C@H](O)C3=C(CO)C(=O)OC3=C[C@@H]21
MIC [9]: 25 µg/mL (≈ 71.7 µM)
IC50 [10]: 71800 nM

Cc1cc(C)cc(Nc2nc(-c3cc(C(=O)O)no3)co2)c1
IC50 [4]: 4240 nM
